Experimental data: patent publication EP4741389A1, “KAT6 INHIBITOR” (Shanghai Qilu Pharmaceutical Research and Development …, priority 2023, dated 2025)

Columns and labels:
KAT6A = biological target: T1, KAT6A (Homo sapiens, UniProt Q92794); test: KATs acetyltransferase enzyme activity assay (TR-FRET), KAT6A; type: biochemical; conditions: Biotin-H3 (1-21) and AcCOA, 90 minutes at room temperature
T1 construct: purchased Active Motif 81223
Method: (§1) I. KATs acetyltransferase enzyme activity assay
• 1. The inhibitory effect of compounds on the acetyltransferase activity of KATs was evaluated using the Time-Resolved Fluorescence Resonance Energy Transfer (TR-FRET) assay. The assay was conducted in 384-well plates using Tris-HCl buffer. • 2. Compounds were diluted in DMSO and transferred to 384-well plates. […] Subsequently, 2.5 µL of a mixture containing KAT6A/KAT6B: Biotin-H3 (1-21, Genscript, C6829GL060) or KAT5/7/8: Bio-H4 (1-25, Genscript, C736BGL100) AcCOA (Sigma, A2056) was added, and the reaction proceeded at room temperature for 90 minutes. • 4. After the reaction, a detection mixture containing Europium-anti-acetyl-Histone H4 Lysine (H4Kac pan) Antibody (Perkin Elmer, TRF0412) and LANCE Ultra ULight™-Streptavidin in LANCE™ Detection buffer (10x) (Perkin Elmer, CR97-100) was added, followed by incubation at room temperature for 60 minutes. • 5. […] IC50 values were calculated by nonlinear regression using a four-parameter logistic equation in GraphPad Prism 8 software.

KAT6B = biological target: T2, KAT6B (Homo sapiens, UniProt Q8WYB5); test: KATs acetyltransferase enzyme activity assay (TR-FRET), KAT6B; type: biochemical; conditions: Biotin-H3 (1-21) and AcCOA, 90 minutes at room temperature
T2 construct: purchased Active Motif 81224
Method: as §1
• 1. The inhibitory effect of compounds on the acetyltransferase activity of KATs was evaluated using the Time-Resolved Fluorescence Resonance Energy Transfer (TR-FRET) assay. The assay was conducted in 384-well plates using Tris-HCl buffer. • 2. Compounds were diluted in DMSO and transferred to 384-well plates. Enzyme solutions (KAT6: active motif (kit), 81223; KAT6B: active motif, 81224; KAT5: SignalChem, K314-380G; KAT7: ICE, S2210F-H21HF; KAT8: Active motif, 81225) were added and the mixture was incubated at room temperature for 15 minutes. • 3. Subsequently, 2.5 µL of a mixture containing KAT6A/KAT6B: Biotin-H3 (1-21, Genscript, C6829GL060) or KAT5/7/8: Bio-H4 (1-25, Genscript, C736BGL100) AcCOA (Sigma, A2056) was added, and the reaction proceeded at room temperature for 90 minutes. • 4. After the reaction, a detection mixture containing Europium-anti-acetyl-Histone H4 Lysine (H4Kac pan) Antibody (Perkin Elmer, TRF0412) and LANCE Ultra ULight™-Streptavidin in LANCE™ Detection buffer (10x) (Perkin Elmer, CR97-100) was added, followed by incubation at room temperature for 60 minutes. • 5. HTRF signals were measured using a BMG PHERAstar FSX (Ratio: 665nm/620nm). IC50 values were calculated by nonlinear regression using a four-parameter logistic equation in GraphPad Prism 8 software.

[1] = test system: ZR-75-1 H3K23 Acetylation; test: Histone H3 acetylation assay (H3K23 acetylation in ZR-75-1 cells); type: cell-based; conditions: Homo sapiens, 72 hours incubation, Odyssey CLx fluorescence, read-out: ZR-75-1 H3K23 Acetylation Inhibition IC50
Method: III. Histone H3 acetylation assay
• 1. ZR-75-1 cells were seeded at 5000 cells/40 µL per well in 384-well plates and cultured overnight in an incubator at 37°C & 5% CO2. • 2. 40 nL of serially diluted compounds were added to the 384-well plates, followed by further incubation for 72 hours. • 3. The supernatant was discarded, and 8 w/v% paraformaldehyde (final concentration was 4 w/v%) was added directly to the wells to fix the cells at room temperature. • 4. After washing twice with PBS, a permeabilization agent (40 µL of methanol) was added and incubated for 10 minutes to permeabilize the cell membranes. • 5. After washing twice with PBS, a blocking buffer was added and incubated at room temperature for 1 hour for blocking. • 6. The blocking buffer was discarded, and 20 µL of primary antibodies (recombinant Anti-Histone H3 (acetyl K23) antibody and Anti-Histone H4 antibody) diluted in blocking buffer (1:1000 by volume dilution) were added, followed by incubation at 4°C overnight. • 7. After washing three times with PBST (0.05 vol% Tween-20 in PBS), 20 µL of fluorescent secondary antibodies (IRDye 680RD Goat anti-MOUSE, Licor, 926-68070; IRDye 800CW Goat anti-Rabbit, Licor, 926-32211) diluted in blocking buffer (1:2000 by volume dilution) were added, followed by incubation at room temperature, protected from light, for 1 hour. Then, the plates were washed three times with PBST. • 8. Scanning was performed using an Odyssey CLx, and the fluorescence signal value for each well was quantified. IC50 values were calculated by nonlinear regression using a four-parameter logistic equation in GraphPad Prism 8 software.

ZR-75-1 cells = test: ZR-75-1 cell proliferation assay (CellTiter-Glo); type: cell-based; conditions: Homo sapiens, ZR-75-1, 240 h, total culture period of 10 days, read-out: ZR-75-1 Proliferation Inhibition IC50
Method: II. ZR-75-1 cell proliferation assay
• 1. ZR-75-1 cells were seeded in 96-well plates and cultured overnight in an incubator at 37°C & 5% CO2. • 2. Compounds were diluted using culture medium and added to the 96-well plates. The plates were placed back into the incubator for continued culture. Every 5 days, the cells were trypsinized, counted, and re-seeded. After the cells had fully adhered, compounds were added again for incubation, for a total culture period of 10 days. • 3. After the culture period, 60 µL of CellTiter-Glo reagent (Promega, G7573) was added to each well. The plates were protected from light and shaken for 2 minutes to lyse the cells, followed by further incubation at room temperature, protected from light, for 30 minutes. • 4. Luminescence signals were read using a BMG PHERAstar FSX. IC50 values were calculated by nonlinear regression using a four-parameter logistic equation in GraphPad Prism 8 software.

T1 sequence (Q92794 488-778 limits assumed): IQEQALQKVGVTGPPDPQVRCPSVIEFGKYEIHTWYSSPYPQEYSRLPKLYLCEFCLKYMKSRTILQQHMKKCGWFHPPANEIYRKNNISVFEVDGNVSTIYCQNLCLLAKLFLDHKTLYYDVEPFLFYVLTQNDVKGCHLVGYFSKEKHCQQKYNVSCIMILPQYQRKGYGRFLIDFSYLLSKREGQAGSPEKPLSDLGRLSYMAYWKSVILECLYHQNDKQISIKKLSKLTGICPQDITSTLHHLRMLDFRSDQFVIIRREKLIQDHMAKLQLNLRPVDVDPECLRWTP
T2 sequence (Q8WYB5 whole entry): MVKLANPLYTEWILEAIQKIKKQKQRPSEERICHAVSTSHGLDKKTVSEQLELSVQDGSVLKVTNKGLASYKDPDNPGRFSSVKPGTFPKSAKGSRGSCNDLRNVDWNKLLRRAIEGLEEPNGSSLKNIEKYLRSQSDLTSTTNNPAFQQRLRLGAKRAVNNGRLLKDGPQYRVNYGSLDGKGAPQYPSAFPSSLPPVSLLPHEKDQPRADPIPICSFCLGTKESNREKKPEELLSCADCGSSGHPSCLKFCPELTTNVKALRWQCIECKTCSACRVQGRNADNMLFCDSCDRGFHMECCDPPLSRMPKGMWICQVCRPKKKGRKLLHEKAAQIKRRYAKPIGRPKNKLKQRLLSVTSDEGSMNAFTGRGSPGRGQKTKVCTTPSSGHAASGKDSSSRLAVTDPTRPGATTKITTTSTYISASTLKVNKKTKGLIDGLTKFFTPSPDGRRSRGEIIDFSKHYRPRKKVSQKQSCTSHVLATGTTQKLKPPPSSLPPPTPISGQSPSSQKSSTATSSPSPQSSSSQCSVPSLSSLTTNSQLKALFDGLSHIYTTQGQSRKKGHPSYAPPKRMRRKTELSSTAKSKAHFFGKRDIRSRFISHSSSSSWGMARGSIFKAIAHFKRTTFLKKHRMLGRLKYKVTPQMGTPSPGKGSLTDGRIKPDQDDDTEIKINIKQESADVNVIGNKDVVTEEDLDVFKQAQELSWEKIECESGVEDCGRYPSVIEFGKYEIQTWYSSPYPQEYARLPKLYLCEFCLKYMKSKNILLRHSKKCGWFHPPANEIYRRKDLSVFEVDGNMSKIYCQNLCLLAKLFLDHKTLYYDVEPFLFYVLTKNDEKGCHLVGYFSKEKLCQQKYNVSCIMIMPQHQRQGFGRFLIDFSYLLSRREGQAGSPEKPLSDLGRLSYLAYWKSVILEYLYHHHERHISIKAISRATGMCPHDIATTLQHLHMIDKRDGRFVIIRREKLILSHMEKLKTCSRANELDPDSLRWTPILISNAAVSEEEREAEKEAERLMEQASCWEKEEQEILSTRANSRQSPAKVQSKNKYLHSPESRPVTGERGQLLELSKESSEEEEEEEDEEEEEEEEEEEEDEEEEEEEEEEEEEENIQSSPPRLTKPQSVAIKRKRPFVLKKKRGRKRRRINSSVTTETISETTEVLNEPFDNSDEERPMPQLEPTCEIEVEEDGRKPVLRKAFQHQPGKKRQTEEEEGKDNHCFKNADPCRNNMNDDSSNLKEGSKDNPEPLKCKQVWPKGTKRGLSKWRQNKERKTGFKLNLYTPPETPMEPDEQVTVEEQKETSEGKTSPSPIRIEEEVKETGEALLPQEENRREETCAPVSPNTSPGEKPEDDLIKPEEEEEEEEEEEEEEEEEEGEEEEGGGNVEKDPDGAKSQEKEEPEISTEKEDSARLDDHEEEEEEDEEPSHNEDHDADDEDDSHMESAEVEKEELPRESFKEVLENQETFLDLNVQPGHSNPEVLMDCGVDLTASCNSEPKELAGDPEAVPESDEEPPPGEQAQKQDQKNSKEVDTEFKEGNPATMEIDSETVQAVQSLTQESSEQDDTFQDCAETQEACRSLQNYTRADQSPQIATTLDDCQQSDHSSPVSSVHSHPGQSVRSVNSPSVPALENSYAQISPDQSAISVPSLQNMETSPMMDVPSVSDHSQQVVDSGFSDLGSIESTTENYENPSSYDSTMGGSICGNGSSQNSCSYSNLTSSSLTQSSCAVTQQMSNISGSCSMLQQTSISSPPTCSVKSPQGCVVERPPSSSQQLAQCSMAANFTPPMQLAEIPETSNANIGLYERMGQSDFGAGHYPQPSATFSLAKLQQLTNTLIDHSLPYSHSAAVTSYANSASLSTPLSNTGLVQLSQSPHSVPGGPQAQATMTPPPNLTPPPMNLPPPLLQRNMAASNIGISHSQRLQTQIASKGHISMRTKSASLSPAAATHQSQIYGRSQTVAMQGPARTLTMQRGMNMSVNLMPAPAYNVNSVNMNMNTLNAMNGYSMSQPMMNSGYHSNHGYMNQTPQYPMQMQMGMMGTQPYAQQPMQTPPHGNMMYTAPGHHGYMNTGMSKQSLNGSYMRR

Structure (SMILES)	IC50 (KAT6A) [nM]	IC50 (KAT6B) [nM]	IC50 [1] [nM]	IC50 (ZR-75-1 cells) [nM]
CCc1c(Cn2cccn2)cc2onc(NS(=O)(=O)c3c(OC)ccc4c3OCCCO4)c2c1OC [Compound 26, N-(6-((1H-Pyrazol-1-yl)methyl)-5-ethyl-4-methoxybenzo[d]isoxazol-3-yl)-7-methoxy-3,4-dihydro-2H-benzo[b][1,4]dioxepine-6-sulfonamide]	4.7	80.3		
CCOc1cc2c(NS(=O)(=O)c3c(OC)ccc4c3OCCCO4)noc2cc1Cn1cccn1 [Compound 18, N-(6-((1H-Pyrazol-1-yl)methyl)-5-ethoxybenzo[d]isoxazol-3-yl)-7-methoxy-3,4-dihydro-2H-benzo [b] [1,4] dioxepine-6-sulfonamide]				22.1
COc1cc2c(cc1S(=O)(=O)Nc1noc3cc(Cn4cccn4)cc(OC)c13)COCCO2 [Compound 9, N-(6-((1H-Pyrazol-1-yl)methyl)-4-methoxybenzo[d]isoxazol-3-yl)-8-methoxy-2,3-dihyd ro-5H-benzo[e][1,4]dioxepine-7-sulfonamide]	1.6	9.5	2.1	
COc1ccc2c(c1S(=O)(=O)Nc1noc3cc(Cn4cccn4)c4c(c13)OCCC4)OCCCO2 [Compound 22, N-(5-((1H-Pyrazol-1-yl)methyl)-3,4-dihydro-2H-chromeno[8,7-d]isoxazol-9-yl)-7-methoxy-3,4-dihydro-2H-benzo[b][1,4]dioxepine-6-sulfonamide]	1.5	7.3		0.5
COc1ccc2c(c1S(=O)(=O)Nc1noc3cc(Cn4cccn4)c(C)cc13)OCCCO2 [Compound 17, N-(6-((1H-Pyrazol-1-yl)methyl)-5-methylbenzo[d]isoxazol-3-yl)-7-methoxy-3,4-dihydro-2H-benzo [b] [1,4] dioxepine-6-sulfonamide]				3.7
[2H]C([2H])([2H])Oc1cc(Cn2cccn2)cc2onc(NS(=O)(=O)c3c(OC)ccc4c3OC[C@@H]3C[C@H]43)c12 [Compound 45, (1aR,7bS)-N-(6-((1H-Pyrazol-1-yl)methyl)-4-(methoxy-d3)benzo[d]isoxazol-3-yl)-5-met hoxy-1,1a,2,7b-tetrahydrocyclopropa[c]chromene-4-sulfonamide]	0.6	1.4		0.04
[2H]C([2H])(c1cc(OC)c2c(NS(=O)(=O)c3c(OC)ccc4c3OC[C@@H]3C[C@H]43)noc2c1)n1cccn1 [Compound 42, (1aR,7bS)-N-(6-((1H-Pyrazol-1-yl)methyl-d2)-4-methoxybenzo[d]isoxazol-3-yl)-5-methoxy-1,1a,2,7b-tetrahydrocyclopropa[c]chromene-4-sulfonamide]	1.1	1.6		0.1
COc1ccc2c(c1S(=O)(=O)Nc1noc3cc(Cn4cccn4)cc(OC)c13)OC1CC21 (stereo not shown) [Compound 44, 4-Methoxy-N-[4-methoxy-6-(pyrazol-1-ylmethyl)-1,2-benzoxazol-3-yl]-la,6b-dihydro-1 H-cyclopropa[b]benzofuran-3-sulfonamide]	1.7	8.6		0.3
[2H]C([2H])([2H])Oc1cc(Cn2cccn2)cc2onc(NS(=O)(=O)c3c(OC)ccc4c3OCCCO4)c12 [Compound 46, 7-Methoxy-N-[6-(pyrazol-1-ylmethyl)-4-(trideuteriomethoxy)-1,2-benzoxazol-3-yl]-3,4-dihydro-2H-1,5-benzodioxepine-6-sulfonamide]	5.4	33.8		1

Further lines, with some results ahead:

IC50 (KAT6A) [nM]	IC50 (KAT6B) [nM]	IC50 [1] [nM]	Structure (SMILES)	IC50 (ZR-75-1 cells) [nM]
2	15		COc1cc2c(cc1S(=O)(=O)Nc1noc3cc(Cn4cccn4)cc(OC)c13)C1(CC1)CO2 [Compound 4, N-(6-((1H-Pyrazol-1-yl)methyl)-4-methoxybenzo[d]isoxazol-3-yl)-6-methoxy-2H-spiro[benzofuran-3,1'-cyclopropane]-5-sulfonamide]	
0.8	1.5	3.4	COc1ccc2c(c1S(=O)(=O)Nc1noc3cc(Oc4nccs4)cc(OC)c13)OC[C@@H]1C[C@H]21 [Compound 47, (1aR,7bS)-5-Methoxy-N-(4-methoxy-6-(thiazol-2-yloxy)benzo[d]isoxazol-3-yl)-1,1a,2,7 b-tetrahydrocyclopropa[c]chromene-4-sulfonamide]	
3.7	28.9		[2H]C([2H])(c1cc(OC)c2c(NS(=O)(=O)c3c(OC)ccc4c3OCCCO4)noc2c1)n1cccn1 [Compound 43, N-(6-((1H-Pyrazol-1-yl)methyl-d2)-4-methoxybenzo[d]isoxazol-3-yl)-7-methoxy-3,4-di hydro-2H-benzo[b][1,4]dioxepine-6-sulfonamide]	1
6.8	51.6	6.5	COc1ccc2c(c1S(=O)(=O)Nc1noc3cc(Cn4cccn4)cc(OC)c13)OC1CC1O2 (stereo not shown) [Compound 50, N-(6-((1H-Pyrazol-1-yl)methyl)-4-methoxybenzo[d]isoxazol-3-yl)-4-methoxy-1a,7a-dihydro-1H-benzo[b]cyclopropa[e][1,4]dioxine-3-sulfonamide]	
3	23.1	4.2	COc1ccc2c(c1S(=O)(=O)Nc1noc3cc(Cn4cccn4)cc(OC)c13)OCC21COC1 [Compound 49, N-(6-((1H-Pyrazol-1-yl)methyl)-4-methoxybenzo[d]isoxazol-3-yl)-6-methoxy-2H-spiro[benzofuran-3,3'-oxetane]-7-sulfonamide]	
3.1	34.4		COc1ccc2c(c1S(=O)(=O)Nc1noc3cc(Cn4cccn4)c(C)c(OC)c13)OCC1CC21 (stereo not shown) [Compound 24, N-(6-((1H-Pyrazol-1-yl)methyl)-4-methoxy-5-methylbenzo[d]isoxazol-3-yl)-5-methoxy-1,1a,2,7b-tetrahydrocyclopropa[c]chromene-4-sulfonamide]	
5.9	70.3		COc1ccc2c(c1S(=O)(=O)Nc1noc3cc(Cn4cccn4)c(C)c(OC)c13)OCC21CC1 [Compound 25, N-(6-((1H-Pyrazol-1-yl)methyl)-4-methoxy-5-methylbenzo[d]isoxazol-3-yl)-6-methoxy-2H-spiro[benzofuran-3,1'-cyclopropane]-7-sulfonamide]	
